# Reference: ChEMBL document CHEMBL1201862, “PubChem BioAssay data set” (2004)
#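 Tested at 5 concentrations; 48 h exposure; 96-well plates; endpoints linearly interpolated, else capped at highest concentration. GI50 = concentration required for 50% inhibition of growth.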 Active and inactive are the calls of the source. No stated cut-off is given here; in the data, active = GI50 up to about 1.1 µM and inactive = higher. Non-standard residues stand in square brackets, D forms with d. Residues, ends and D or L forms follow the SMILES beside them. ξ: configuration not given here. *: point of attachment. ξF = NC(Cc1ccccc1)C(=O)O; Cbz = O=C(OCc1ccccc1)*
# What was measured:
# Assay in all cases: NCI tumour cell line growth inhibition, 48 h
# [1] = system: UACC-62
# [2] = system: OVCAR-5
# [3] = system: COLO 205
# [4] = system: SF-268
# [5] = system: HOP-62
# [6] = system: U-251
# [7] = system: HCT-15
# [8] = system: SK-OV-3
# [9] = system: UO-31
# [10] = system: EKVX
# [11] = system: RPMI-8226
# [12] = system: SK-MEL-5
# [13] = system: KM12
# [14] = system: HCC 2998
# [15] = system: OVCAR-4
# [16] = system: Malme-3M
# [17] = system: RXF 393
# [18] = system: NCI-H522
Structure (SMILES),GI50 [1],GI50 [2],GI50 [3],GI50 [4],GI50 [5],GI50 [6],GI50 [7] [µM],GI50 [8],GI50 [9],GI50 [10],GI50 [11],GI50 [12],GI50 [13],GI50 [14],GI50 [15],GI50 [16],GI50 [17],GI50 [18]
CC(=O)C1COC(O)C1C (stereo not given),14 µM (inactive),27.2 µM (inactive),17 µM (inactive),17.3 µM (inactive),16.3 µM (inactive),23.4 µM (inactive),18.5,31 µM (inactive),17.7 µM (inactive),38 µM (inactive),19.7 µM (inactive),16 µM (inactive),13.6 µM (inactive),,,,,
Oc1c(Br)cc(/C=C/c2cccc(/C=C/c3cc(Br)c(O)c(Br)c3)n2)cc1Br,15.7 µM (inactive),17.6 µM (inactive),14.6 µM (inactive),15 µM (inactive),31.6 µM (inactive),9.06 µM (inactive),6.22,20.6 µM (inactive),15.1 µM (inactive),14.8 µM (inactive),11.5 µM (inactive),7.06 µM (inactive),5.66 µM (inactive),6.5 µM (inactive),13.3 µM (inactive),,,
CC(=O)O[C@H]1CCC2[C@@H]3CCC4Nc5oncc5C[C@]4(C)C3CC[C@@]21C (stereo not given in full),,> 10 µM (inactive),> 10 µM (inactive),> 10 µM (inactive),> 10 µM (inactive),> 10 µM (inactive),> 10,> 10 µM (inactive),> 10 µM (inactive),,> 10 µM (inactive),> 10 µM (inactive),> 10 µM (inactive),> 10 µM (inactive),> 10 µM (inactive),> 10 µM (inactive),> 10 µM (inactive),
CC1CCC(C(=O)O)(C(Br)C(=O)O)CC1 (stereo not given),> 100 µM (inactive),> 100 µM (inactive),,,> 100 µM (inactive),> 100 µM (inactive),> 100,,> 100 µM (inactive),> 100 µM (inactive),> 100 µM (inactive),> 100 µM (inactive),> 100 µM (inactive),,> 100 µM (inactive),,> 100 µM (inactive),
CSc1nc(SC)c2ncn(C3CC(Oc4ccc(C)cc4)C(COc4ccc(C)cc4)O3)c2n1 (stereo not given),> 100 µM (inactive),> 100 µM (inactive),> 100 µM (inactive),> 100 µM (inactive),> 100 µM (inactive),> 100 µM (inactive),> 100,> 100 µM (inactive),0.984 µM (active),> 100 µM (inactive),8.71 µM (inactive),> 100 µM (inactive),> 100 µM (inactive),> 100 µM (inactive),> 100 µM (inactive),> 100 µM (inactive),,> 100 µM (inactive)
CC1(C)COC(c2cccc(C3=NC(C)(C)CO3)c2)=N1,64.3 µM (inactive),> 100 µM (inactive),> 100 µM (inactive),> 100 µM (inactive),> 100 µM (inactive),> 100 µM (inactive),> 100,,> 100 µM (inactive),> 100 µM (inactive),> 100 µM (inactive),> 100 µM (inactive),> 100 µM (inactive),> 100 µM (inactive),83.9 µM (inactive),> 100 µM (inactive),,
Cc1ccc(-n2cc(-c3ccc(Cl)cc3)c3c(NNC(=S)NCc4ccccc4)ncnc32)cc1,18.1 µM (inactive),11.3 µM (inactive),10.7 µM (inactive),8.53 µM (inactive),16.6 µM (inactive),5.36 µM (inactive),6.08,16.3 µM (inactive),10.1 µM (inactive),13.1 µM (inactive),9.29 µM (inactive),5.09 µM (inactive),3.66 µM (inactive),,17.5 µM (inactive),20.3 µM (inactive),14.3 µM (inactive),4.53 µM (inactive)
CC(C)(CO)NC(=O)c1cccs1,> 100 µM (inactive),> 100 µM (inactive),> 100 µM (inactive),> 100 µM (inactive),> 100 µM (inactive),> 100 µM (inactive),> 100,> 100 µM (inactive),> 100 µM (inactive),> 100 µM (inactive),> 100 µM (inactive),> 100 µM (inactive),> 100 µM (inactive),> 100 µM (inactive),> 100 µM (inactive),> 100 µM (inactive),,> 100 µM (inactive)
COc1nc(C#CC2CCCCC2)nc(OC)n1,1.28 µM (inactive),2.51 µM (inactive),6.1 µM (inactive),4.07 µM (inactive),3.72 µM (inactive),3.39 µM (inactive),1.38,13.1 µM (inactive),2.54 µM (inactive),16 µM (inactive),1.51 µM (inactive),3.06 µM (inactive),4.76 µM (inactive),,5.42 µM (inactive),1.95 µM (inactive),4.91 µM (inactive),1.59 µM (inactive)
O=c1[nH]nc(Cc2ccccc2)n1N=C1CCCCC1,> 100 µM (inactive),3.78 µM (inactive),> 100 µM (inactive),> 100 µM (inactive),> 100 µM (inactive),> 100 µM (inactive),> 100,,> 100 µM (inactive),< 0.01 µM (active),> 100 µM (inactive),> 100 µM (inactive),> 100 µM (inactive),,> 100 µM (inactive),> 100 µM (inactive),> 100 µM (inactive),> 100 µM (inactive)
O=C(O)CN1CCN2CCOCCOCCN(CC1)CCN(CC(=O)O)CC2,> 100 µM (inactive),> 100 µM (inactive),> 100 µM (inactive),,> 100 µM (inactive),> 100 µM (inactive),> 100,> 100 µM (inactive),> 100 µM (inactive),> 100 µM (inactive),> 100 µM (inactive),> 100 µM (inactive),> 100 µM (inactive),,> 100 µM (inactive),> 100 µM (inactive),,> 100 µM (inactive)
Cc1c(NC(=O)CCl)c(=O)oc2c(C)c3occc(=O)c3cc12,,18.5 µM (inactive),14.3 µM (inactive),6.95 µM (inactive),13.8 µM (inactive),14.4 µM (inactive),> 10,18.2 µM (inactive),10.5 µM (inactive),18.9 µM (inactive),7.87 µM (inactive),10.9 µM (inactive),11.7 µM (inactive),16.9 µM (inactive),11.5 µM (inactive),21.1 µM (inactive),,
c1c[nH]c(CN2CCOCC2)n1,> 100 µM (inactive),> 100 µM (inactive),> 100 µM (inactive),> 100 µM (inactive),> 100 µM (inactive),> 100 µM (inactive),> 100,> 100 µM (inactive),> 100 µM (inactive),> 100 µM (inactive),> 100 µM (inactive),> 100 µM (inactive),> 100 µM (inactive),,> 100 µM (inactive),> 100 µM (inactive),> 100 µM (inactive),> 100 µM (inactive)
CCOC(=O)CNC(=O)C(Cc1ccccc1)NC(=O)OCc1ccccc1 (stereo not given) (Cbz-[ξF]-Gly-OEt),,> 100 µM (inactive),> 100 µM (inactive),> 100 µM (inactive),> 100 µM (inactive),> 100 µM (inactive),> 100,> 100 µM (inactive),> 100 µM (inactive),> 100 µM (inactive),> 100 µM (inactive),> 100 µM (inactive),> 100 µM (inactive),> 100 µM (inactive),,86.3 µM (inactive),,
CCCCCCCCCCCC(=O)Oc1c(Cl)cc(Cl)c(OC(=O)C(=O)Oc2c(Cl)cc(Cl)c(OC(=O)CCCCCCCCCCC)c2Cl)c1Cl,> 100 µM (inactive),> 100 µM (inactive),> 100 µM (inactive),> 100 µM (inactive),> 100 µM (inactive),> 100 µM (inactive),,> 100 µM (inactive),> 100 µM (inactive),> 100 µM (inactive),> 100 µM (inactive),> 100 µM (inactive),> 100 µM (inactive),,> 100 µM (inactive),> 100 µM (inactive),> 100 µM (inactive),> 100 µM (inactive)
CC(C)=CCC[C@](C)(O[C@@H]1O[C@H](CO)[C@@H](O)[C@H](O)[C@H]1O)[C@H]1CC[C@]2(C)[C@@H]1[C@H](O)C[C@@H]1[C@@]3(C)CC[C@H](O)C(C)(C)[C@@H]3[C@@H](O[C@@H]3O[C@H](CO)[C@@H](O)[C@H](O)[C@H]3O[C@@H]3O[C@@H](C)[C@H](O)[C@@H](O)[C@H]3O)C[C@]12C.CC(C)=CCC[C@](C)(O[C@@H]1O[C@H](CO)[C@@H](O)[C@H](O)[C@H]1O)[C@H]1CC[C@]2(C)[C@@H]1[C@H](O)C[C@@H]1[C@@]3(C)CC[C@H](O)C(C)(C)[C@@H]3[C@@H](O[C@@H]3O[C@H](CO)[C@@H](O)[C@H](O)[C@H]3O[C@@H]3O[C@H](CO)[C@@H](O)[C@H](O)[C@H]3O)C[C@]12C,> 75 µM (inactive),> 75 µM (inactive),> 75 µM (inactive),54.3 µM (inactive),22.9 µM (inactive),> 75 µM (inactive),> 75,> 75 µM (inactive),> 75 µM (inactive),> 75 µM (inactive),> 75 µM (inactive),> 75 µM (inactive),> 75 µM (inactive),> 75 µM (inactive),> 75 µM (inactive),,,> 75 µM (inactive)
Nc1nc(NNc2ccccc2F)cc(=O)[nH]1,,> 100 µM (inactive),97.1 µM (inactive),,> 100 µM (inactive),82.2 µM (inactive),> 100,,> 100 µM (inactive),> 100 µM (inactive),54.2 µM (inactive),> 100 µM (inactive),> 100 µM (inactive),> 100 µM (inactive),> 100 µM (inactive),> 100 µM (inactive),,
